Consider 1 molecule from BindingDB's records for patent US20250346592 (Celgene, 2025).

The assay concerns the target Protein-arginine deiminase type-4 (Homo sapiens, UniProt Q9UM07). The experiment in a line: RFMS2 Assay. The method, then: Final Assay Conditions:Total reaction volume: 25 μlAssay buffer: […] pH 7.4, 200 mM NaCl, 2 mM CaCl2, 5 mM DTT35 nM recombinant human PAD4500 μM TSTGGRQGSHH peptide1.2% DMSOStop solution: 10% formic acidReaction mixtures were incubated at room temperature for 30 minutes. 10 μl each of the reaction mixtures was then mixed with 40 μl of 10% formic acid in a microtiter plate. The plate was frozen at −80° C. before shipping out on dry ice for RapidFire mass spectroscopy analysis.Thawed samples were loaded onto the Rapid Fire 300 system (Agilent) wherein they were first sipped for 250 ms and then loaded onto a Agilent “C” (C18) cartridge using a mobile phase of water containing 0.09% formic acid/0.01% trifluoroacetic acid for 3000 ms desalting flowing at a rate of 1.5 ml/min. Once the samples were loaded and washed, a mobile phase of acetonitrile containing 0.09% formic acid/0.01% trifluoroacetic acid was used to elute the samples directly onto a Sciex API4000 triple quadrupole mass spectrometer for 3000 ms at a flow rate of 1.25 ml/min.

Protein-arginine deiminase type-4, sequence (Q9UM07 whole entry): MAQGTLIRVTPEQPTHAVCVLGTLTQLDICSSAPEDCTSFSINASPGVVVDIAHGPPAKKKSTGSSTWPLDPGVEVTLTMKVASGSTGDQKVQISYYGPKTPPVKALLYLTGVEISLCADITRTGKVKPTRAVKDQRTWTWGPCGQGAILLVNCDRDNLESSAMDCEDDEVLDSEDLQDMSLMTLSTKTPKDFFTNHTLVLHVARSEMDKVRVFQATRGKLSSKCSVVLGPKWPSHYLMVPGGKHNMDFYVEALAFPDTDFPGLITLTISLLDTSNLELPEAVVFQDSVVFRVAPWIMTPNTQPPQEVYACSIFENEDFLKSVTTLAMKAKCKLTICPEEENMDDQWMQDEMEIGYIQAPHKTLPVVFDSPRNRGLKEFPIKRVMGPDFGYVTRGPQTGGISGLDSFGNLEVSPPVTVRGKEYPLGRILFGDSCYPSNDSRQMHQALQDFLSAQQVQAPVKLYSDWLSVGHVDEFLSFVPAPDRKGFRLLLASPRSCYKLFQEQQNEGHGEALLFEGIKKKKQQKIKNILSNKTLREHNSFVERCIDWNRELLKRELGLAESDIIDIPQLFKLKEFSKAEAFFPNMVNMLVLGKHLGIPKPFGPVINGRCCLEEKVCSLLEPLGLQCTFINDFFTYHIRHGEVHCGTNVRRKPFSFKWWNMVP

Turning to `COc1cccc2cc(-c3nc4cc5c(cc4n3C)CCN(C[C@H](N)CF)C5=O)n(CC(=O)N(C)C)c12` [US20250346592, Example 122], the IC50 (as a rule, the midpoint of a concentration-inhibition curve) is over 1000 nM.
